According to patent US20260130885A1, “ANTIMICROBIAL COMPOSITIONS, PHARMACEUTICAL COMPOSITIONS AND USE THEREOF” (priority 2022, published 2026):
Like-named read-outs stand apart in the source and are kept apart here.

System: MRSA USA300
Assay: Antibacterial activity assay (MIC by broth microdilution, MBC by subculture)
Assay type: cell-based, Staphylococcus aureus
Details: for bactericidal combination effect of the fatty acid with SC5005 (in words): MBC, Table 2; for effect of the fatty acid on the MIC of SC5005 (in words): summary of Table 1; for synergy of the fatty acid with SC5005 (in words): summary of Tables 1 and 2
Protocol: The antimicrobial activity was based on MIC and MBC; MIC is the minimum inhibitory concentration and MBC is the minimum bactericidal concentration. The MIC of individual test agents against MRSA USA300 strains was determined using the broth microdilution method according to CLSI guidelines. Briefly, overnight bacterial cultures in LB medium were diluted 1:50 in fresh LB medium and incubated at 37° C. until reaching an OD600 of 0.5 to 0.6. Bacterial suspensions were diluted to a final concentration of 5×10^5 cfu/mL in fresh CAMHB and then exposed to each test agent at increasing doses in triplicate in 96-well plates for 24 hours at 37° C. The MIC of each agent was defined as the lowest concentration without visible bacterial growth. […] The lowest broth dilution that had no viable bacteria was considered the MBC.
Then, the combination effect was measured by calculating their corresponding fractional inhibitory concentration index (FICI) with the equation ΣFIC (FICi)=FICA+FICB=(CombA/MICA)+(CombB/MICB), where MICA and MICB are the MICs of drugs A and B alone, respectively, and CombA and CombB are the concentrations of drugs A and B in combination, respectively. […] was defined as an FICI≤0.5, no interaction was defined as an FICI>0.5-4.0, and antagonism was defined as an FICI>4.

[1] = Staphylococcus aureus, fatty acid alone, read-out: MBC fatty acid
[2] = Staphylococcus aureus, fatty acid alone, read-out: MIC fatty acid
[3] = Staphylococcus aureus, amide compound alone, read-out: MBC
[4] = Staphylococcus aureus, amide compound alone, read-out: MIC

Structure (SMILES) | bactericidal combination effect of the fatty acid with SC5005 (in words) | MBC [1] [µg/mL] | MIC [2] [µg/mL] | effect of the fatty acid on the MIC of SC5005 (in words) | MBC (+8 mg/L DHA) [µg/mL] | MIC (+8 mg/L DHA) [µg/mL] | MBC [3] [µg/mL] | MIC [4] [µg/mL] | synergy of the fatty acid with SC5005 (in words)
CCCCCCCC/C=C\CCCCCCCCCCCC(=O)O [erucic acid] | exhibited a synergistic bactericidal effect with SC5005 | 1020 | 128 | had no effect on the MIC of SC5005 |  |  |  |  | 
O=C(Nc1cccc(C(F)(F)F)c1)C(CCCl)C(=O)Nc1cccc(C(F)(F)F)c1 [SC5023] |  |  |  |  | 16 | 16 | > 64 | > 64 | 
O=C(Nc1cc(Cl)cc(Cl)c1)C(Cc1ccccc1)C(=O)Nc1cc(Cl)cc(Cl)c1 [SC5043] |  |  |  |  | 0.0156 | 0.0156 | 4 | 2 | 
O=C(Nc1cc(C(F)(F)F)cc(C(F)(F)F)c1)C(Cc1ccccc1)C(=O)Nc1cc(C(F)(F)F)cc(C(F)(F)F)c1 [SC5044] |  |  |  |  | 0.0078 | 0.000975 | 2 | 0.5 | 
FC(F)(F)c1cc(Nc2cncc(Nc3ccc(Cl)c(C(F)(F)F)c3)n2)ccc1Cl [SC5010] |  |  |  |  | >64 | >64 | > 64 | > 64 | 
CN(C(=O)C(CCCl)C(=O)N(C)c1ccc(Cl)c(C(F)(F)F)c1)c1ccc(Cl)c(C(F)(F)F)c1 [SC5101] |  |  |  |  | >64 | >64 | > 64 | > 64 | 
CCCNC(=O)C(CCCl)C(=O)Nc1ccc(Cl)c(C(F)(F)F)c1 (stereo not drawn) [SC5049] |  |  |  |  | 8 | 8 | > 64 | > 64 | 
CCCCC/C=C\C/C=C\CCCCCCCC(=O)O [linoleic acid] |  | > 1020 | 1020 |  |  |  |  |  | 
O=C(Nc1ccc(Cl)c(C(F)(F)F)c1)Nc1cccc(OF)c1OF [1-164, reference compound] |  |  |  |  |  | 0.03125 | 4 | 0.25 | 
C#Cc1cccc(Nc2cncc(Nc3cccc(C#C)c3)n2)c1 [SC5015] |  |  |  |  | >64 | >64 | > 64 | > 64 | 
C=CCC(C(=O)Nc1cc(Cl)cc(Cl)c1)C(=O)Nc1cc(Cl)cc(Cl)c1 [SC5040] |  |  |  |  | 0.125 | 0.0039 | 2 | 1 | 
CCCCCCCC/C=C\CCCCCCCC(=O)O [oleic acid] |  | > 1020 | 512 |  |  |  |  |  | 
C#Cc1cccc(NC(=O)C(CC=C)C(=O)Nc2cccc(C#C)c2)c1 [SC5038] |  |  |  |  | >64 | >64 | > 64 | > 64 | 
CC/C=C\C/C=C\C/C=C\C/C=C\C/C=C\CCCC(=O)O [Eicosapentaenoic acid, eicosapentaenoic acid] |  | 1020 | 64 |  |  |  |  |  | 
CCCCCCCC/C=C/CCCCCCCC(=O)O [elaidic acid] |  | > 1020 | > 1020 |  |  |  |  |  | did not exhibit synergy with SC5005
C#Cc1cccc(NC(=O)C(CCCl)C(=O)Nc2cccc(C#C)c2)c1 [SC5026] |  |  |  |  | >64 | >64 | > 64 | > 64 | 
O=C(Nc1ccc([N+](=O)[O-])c(C(F)(F)F)c1)C(CCCl)C(=O)Nc1ccc([N+](=O)[O-])c(C(F)(F)F)c1 [SC5034] |  |  |  |  | 1 | 1 | 32 | 16 | 
O=C(Nc1cc(Cl)cc(Cl)c1)C(CCCl)C(=O)Nc1cc(Cl)cc(Cl)c1 [SC5025] |  |  |  |  | 2 | 2 | 32 | 16 | 
O=C(Nc1ccc(Oc2ccccc2)cc1)Nc1ccc(Cl)c(C(F)(F)F)c1 [3-006, reference compound] |  |  |  |  |  | 0.0078 | 1 | 0.125 | 
CCCCCCCC/C=C\CCCCCCCCCC(=O)O [gondoic acid] | exhibited a synergistic bactericidal effect with SC5005 | > 1020 | 512 | had no effect on the MIC of SC5005 |  |  |  |  | 
CCCCCCCC/C=C\CCCCCCCCCCCCCC(=O)O [nervonic acid] |  | > 1020 | 128 |  |  |  |  |  | neither of nervonic acid (C24:1n9c) and myristic acid (C14:1n5c), which have 24 and 14 carbon atoms respectively, showed any synergistic activity with SC5005
C#Cc1cccc(NC(=O)C2(C(=O)Nc3cccc(C#C)c3)CC2)c1 [SC5021] |  |  |  |  | 64 | 64 | > 64 | > 64 | 
